Reference: patent US20220034908A1, “PHARMACEUTICAL COMPOSITION FOR PREVENTING OR TREATING FABRY DISEASE, CONTAINING TSP1 PROTEIN INHIBITOR AS ACTIVE INGREDIENT” (KOREA ADVANCED INSTITUTE OF SCIENCE AND TECHNOLOGY, priority 2018, published 2022)

Key:
Assay type in all cases: cell-based, human
[1] = system: TSP1, KDR, eNOS and phospho-AKT in vascular endothelial cells differentiated from normal iPSCs; assay: Western blotting of vasculopathy-related proteins after LysoGb3 treatment; settings: treated for 3, 6, or 9 days; Western blot, FIG. 19
Method: (§1) Particularly, the FB-iPSCs prepared in Example 1 were treated with Fabrazyme, a therapeutic agent for Fabry disease, and starvation media in various combinations. Pro-Prep solution (Intron Biotechnology, Korea) was added to each sample and reacted at 4° C., followed by centrifugation at 1300 rpm for 10 minutes to obtain a supernatant. The obtained supernatant was electrophoresed on acrylamide gel and transferred to a nitrocellulose membrane, followed by blocking with 4% skim milk. Then, anti-LC3 antibody (1:1000, Santacruz, USA) was treated thereto and reacted at 4° C. for 24 hours, followed by washing three times with TBS containing tween-20. The protein expression level was confirmed by the conventional Western blotting. The expression level of each protein was corrected using GAPDH as a control.
The changes in the expression levels of vasculopathy-related proteins by Gb3 protein were confirmed using Western blotting. Particularly, the vascular endothelial cells differentiated from normal iPSCs were treated with LysoGb3 protein for 3, 6, or 9 days, and Western blotting was performed in the same manner as described in Experimental Example <3-1>. At this time, anti-TSP1 antibody (1:1000, Santacruz, USA), anti-KDR antibody (1:1000, Cell Signaling Technologies, USA), anti-eNOS antibody (1:1000, Cell Signaling Technologies, USA), anti-AKT antibody (1:1000, Cell Signaling Technologies, USA), and anti-phospho-AKT antibody (1:1000, Cell Signaling Technologies, USA) were used as antibodies.

[2] = system: vascular endothelial cells differentiated from normal iPSCs; assay: Morphology of vascular endothelial cells differentiated from normal iPSCs after LysoGb3 treatment; settings: treated for 9 days; FIG. 17
Method: Particularly, the vascular endothelial cells differentiated from normal iPSCs were treated with LysoGb3 protein (MATREYA LLC, USA) for 9 days, and then the morphology of the cells was confirmed.

[3] = system: KDR, eNOS and TSP1 genes in vascular endothelial cells differentiated from normal iPSCs; assay: RT-PCR of vasculopathy-related genes after LysoGb3 treatment
Method: Particularly, the vascular endothelial cells differentiated from normal iPSCs were treated with LysoGb3 protein for 1, 3 or 5 days, and RNA was extracted from the cells using easy-BLUE (Intron). Then, RT-PCR was performed in the conventional manner to confirm the RNA expression levels of KDR, eNOS and TSP1 (Thrombospondin 1) genes related to vasculopathy. As a result, as shown in FIGS. 18a to 18c, the RNA expression levels of KDR, eNOS and TSP1 genes were increased 1 day after the treatment of LysoGb3 protein.

[4] = system: TSP1 protein in vascular endothelial cells differentiated from normal iPSCs; assay: Immunostaining of TSP1 protein expression location after LysoGb3 treatment; settings: FIG. 20
[5] = system: vascular endothelial cells differentiated from FB-iPSCs; assay: Morphology of vascular endothelial cells differentiated from FB-iPSCs after TGF-β inhibitor treatment; settings: for therapeutic effect on vasculopathy in patients with Fabry disease: conclusion of Experimental Example 9, patient-derived vascular endothelial cells
Method: Particularly, the FB-iPSCs prepared in Example 1 were cultured in a feeder-free state for 3 days. Thereafter, the medium was exchanged with RPMI-1640 medium containing 1% B27, to which 50 ng/ml of activin A and 20 ng/ml of BPM4 were added as growth factors, and then the cells were cultured for 2 days to differentiate into mesoderm cells. The medium was exchanged with RPMI-1640 medium containing 0.5% B27, to which 50 ng/ml of VEGFA and 50 ng/ml of bFGF were added as growth factors, and then the cells were cultured for 2 days to differentiate into vascular progenitors. CD34 positive cells capable of differentiating into vascular endothelial cells were isolated from the induced vascular progenitors by performing magnetic activated cell sorting (MACS) using CD34 magnetic beads. The isolated CD34 positive cells were further cultured for 2 days in EGM-2 medium (Lonza, USA) containing 100 ng/ml of VEGF-A and 100 ng/ml of bFGF as growth factors to differentiate into vascular endothelial cells. Particularly, using the control group treated with only Fabrazyme on the vascular endothelial cells prepared in Example 2, the experimental group treated with only SB431542 (Cayman Chemical, USA), and the experimental group treated with Fabrazyme and SB431542, the morphology of the cells was confirmed. Particularly, using the control group treated with only Fabrazyme on the vascular endothelial cells prepared in Example 2, the experimental group treated with Fabrazyme and SB431542, and the experimental group treated with Fabrazyme and losartan (Cayman Chemical, USA), the morphology of the cells was confirmed.

[6] = system: TSP1, KDR and eNOS proteins in vascular endothelial cells differentiated from FB-iPSCs; assay: Western blotting of vasculopathy-related proteins in vascular endothelial cells differentiated from FB-iPSCs
Method: as §1
(§2) Particularly, the vascular endothelial cells prepared in Example 2 were treated with Fabrazyme, and Western blotting was performed in the same manner as described in Experimental Example <3-1>. At this time, anti-KDR antibody (1:1000, Cell Signaling Technologies, USA), anti-eNOS antibody (1:1000, Cell Signaling Technologies, USA) and anti-TSP1 antibody (1:1000, Santacruz, USA) were used as antibodies.
Particularly, using the control group treated with only Fabrazyme on the vascular endothelial cells prepared in Example 2 and the experimental group treated with Fabrazyme and SB431542, Western blotting was performed in the same manner as described in Experimental Example <3-1>. At this time, anti-TSP1 antibody (1:1000, Santacruz, USA), anti-KDR antibody (1:1000, Cell Signaling Technologies, USA) and anti-eNOS antibody (1:1000, Cell Signaling Technologies, USA) were used as antibodies.

[7] = system: vascular endothelial cells differentiated from FB-iPSCs; assay: Tube formation on matrigel (vasculogenesis) of vascular endothelial cells differentiated from FB-iPSCs; settings: SB431542 only or Fabrazyme and SB431542 vs Fabrazyme only; FIGS. 23a-23e
Method: On the other hand, 70 μl of matrigel (corning) stock solution was put in a 96-well plate and hardened at 37° C., and then 1×10^4 vascular endothelial cells prepared in Example 2 and EGM2 medium were added thereto to confirm the tube formation. Particularly, using the control group treated with only Fabrazyme on the vascular endothelial cells prepared in Example 2, the experimental group treated with only SB431542, and the experimental group treated with Fabrazyme and SB431542, The tube formation was confirmed in the same manner as described in Experimental Example <4-2>.

[8] = system: SMAD2 protein phosphorylation in vascular endothelial cells differentiated from FB-iPSCs; assay: Western blotting of SMAD2 phosphorylation (TGF-β activation) in vascular endothelial cells differentiated from FB-iPSCs; settings: Fabrazyme treatment; vs normal control group; FIG. 14
Method: as §1
as §2, with “anti-SMAD2” for “anti-KDR antibody (1:1000, Cell Signaling Technologies, USA), anti-eNOS”, “anti-phospho-SMAD2” for “anti-TSP1”, “Cell Signaling Technologies,” for “Santacruz,”

[9] = system: LC3 protein in FB-iPSCs; assay: Western blotting of LC3 protein in FB-iPSCs; settings: Fabrazyme and starvation media in various combinations, vs normal cells, FIG. 4
Method: as §1

[10] = system: LC3, Beclin 1 and ubiquitin proteins in vascular endothelial cells of patients with Fabry disease; assay: Western blotting of LC3, Beclin 1 and ubiquitin in vascular endothelial cells of patients with Fabry disease
Method: as §1
Particularly, vascular endothelial cells were isolated from the dermal tissue obtained from the patients with Fabry disease of Example 1, to which Fabrazyme was treated. Then, the expression levels of LC3, Beclin 1 and ubiquitin proteins were confirmed by performing Western blotting in the same manner as described in Experimental Example <3-1>. At this time, anti-LC3 antibody (1:1000, Santacruz, USA), anti-Beclin 1 antibody (1:500, Santacruz, USA), and anti-ubiquitin antibody (1:1000, Santacruz, USA) were used as antibodies.

[11] = system: TSP1 protein in vascular endothelial cells differentiated from normal iPSCs; assay: Western blotting after activin A treatment of vascular endothelial cells differentiated from normal iPSCs; settings: activin A treatment of normal iPSC-derived vascular endothelial cells; FIG. 15
Method: as §1
Particularly, the vascular endothelial cells differentiated from normal iPSCs were treated with activin A to activate TGF-β, and Western blotting was performed in the same manner as described in Experimental Example <3-1>. […]

[12] = given with Fabrazyme vs Fabrazyme only, Fab #1, Fab #2 (FIGS. 24a, 24b)
[13] = Fabrazyme and SB431542 vs Fabrazyme only, Western blot, FIG. 22
[14] = vascular endothelial cells of Fabry patients, Fabrazyme treatment, vs normal cells, FIG. 5

## CCCCCCCCCCCCC/C=C/[C@@H](O)[C@@H](N)CO[C@@H]1O[C@H](CO)[C@@H](O[C@@H]2O[C@H](CO)[C@H](O[C@H]3O[C@H](CO)[C@H](O)[C@H](O)[C@H]3O)[C@H](O)[C@H]2O)[C@H](O)[C@H]1O [LysoGb3 protein]
[1]
  expression level of KDR protein: decreased
  expression level of TSP1 protein: increased
  expression level of eNOS protein: decreased
  phosphorylation of AKT protein: decreased
[2]
  morphology of the normal vascular endothelial cells: changed to a widening form
[3]; 1 day after the treatment
  RNA expression level of KDR gene: increased
  RNA expression level of TSP1 gene: increased
  RNA expression level of eNOS gene: increased
[3]; after 3 and 5 days
  RNA expression level of KDR gene: lower than those of the normal control cells
  RNA expression level of eNOS gene: lower than those of the normal control cells
[4]
  expression location (distribution) of TSP1 protein: distributed throughout the cells

## NC(=O)c1ccc(-c2nc(-c3ccc4c(c3)OCO4)c(-c3ccccn3)[nH]2)cc1 [SB431542]
[5]; SB431542 only or Fabrazyme and SB431542 vs Fabrazyme only, Fab #1-#4 (FIGS. 21a-21e)
  abnormal morphology of the vascular endothelial cells differentiated from FB-iPSCs: restored to normal
[5]
  therapeutic effect on vasculopathy in patients with Fabry disease: showed a therapeutic effect
[5]; [12]
  abnormal morphology of the vascular endothelial cells differentiated from FB-iPSCs: restored to normal
[6]; [13]
  expression level of KDR protein: increased
  expression level of TSP1 protein: decreased
  expression level of eNOS protein: increased
[7]
  tube formation on matrigel: formed a tube shape

## CCCCc1nc(Cl)c(CO)n1Cc1ccc(-c2ccccc2-c2nn[nH]n2)cc1 [losartan]
[5]
  therapeutic effect on vasculopathy in patients with Fabry disease: could not be confirmed
[5]; [12]
  abnormal morphology of the vascular endothelial cells differentiated from FB-iPSCs: had no effect

B1: Fabrazyme: recombinant alpha-galactosidase enzyme, a therapeutic agent for Fabry disease (protein, UniProt P06280 32-429, looked up)
Alpha-galactosidase A: LDNGLARTPTMGWLHWERFMCNLDCQEEPDSCISEKLFMEMAELMVSEGWKDAGYEYLCIDDCWMAPQRDSEGRLQADPQRFPHGIRQLANYVHSKGLKLGIYADVGNKTCAGFPGSFGYYDIDAQTFADWGVDLLKFDGCYCDSLENLADGYKHMSLALNRTGRSIVYSCEWPLYMWPFQKPNYTEIRQYCNHWRNFADIDDSWKSIKSILDWTSFNQERIVDVAGPGGWNDPDMLVIGNFGLSWNQQVTQMALWAIMAAPLFMSNDLRHISPQAKALLQDKDVIAINQDPLGKQGYQLRQGDNFEVWERPLSGLAWAVAMINRQEIGGPRSYTIAVASLGKGVACNPACFITQLLPVKRKLGFYEWTSRLRSHINPTGTVLLQLENTMQMSLKDLL
[8]
  phosphorylation level of SMAD2 protein: increased in the vascular endothelial cells derived from patients with Fabry disease compared to the normal control group regardless of the Fabrazyme treatment
[6]; Fabrazyme treatment, vs normal control group, FIG. 13
  increased expression level of TSP1 protein by Fabry disease: not inhibited
[9]
  expression level of LC3 protein: higher in FB-iPSCs than in normal cells regardless of the Fabrazyme treatment
[10]; after the treatment of Fabrazyme, conclusion of Experimental Example 3
  characteristics of the lysosomal storage disease: not recovered
[10]; [14]
  expression level of Beclin 1 protein: higher in vascular endothelial cells of patients with Fabry disease than in normal cells regardless of the Fabrazyme treatment
  expression level of LC3 protein: higher in vascular endothelial cells of patients with Fabry disease than in normal cells regardless of the Fabrazyme treatment
  expression level of ubiquitin protein: higher in vascular endothelial cells of patients with Fabry disease than in normal cells regardless of the Fabrazyme treatment

B2: activin A: growth factor used to activate TGF-β (protein, UniProt P08476 311-426, looked up)
Inhibin beta A chain: GLECDGKVNICCKKQFFVSFKDIGWNDWIIAPSGYHANYCEGECPSHIAGTSGSSLSFHSTVINHYRMRGHSPFANLKSCCVPTKLRPMSMLYYDDGQNIIKKDIQNMIVEECGCS
modifications: Inhibin beta A chain
[11]
  expression of TSP1 protein: increased
